{"source": "patent US20100159093A1", "about": "“METHOD OF TREATING FOODSTUFF” (priority 2008, published 2010)", "key": {"[1]": {"test_system": "psychrotrophs", "test": "Growth of psychrotrophs in raw milk under nitrogen gas", "assay_type": "cell-based", "conditions": "12.0° C., N1 environment (120 ml/min)", "method": "With the device shown in FIG. 1, the effect of nitrogen gas on the natural microflora in raw milk (volume approximately 125 ml) was examined by replacing the air (control) in an open vessel (volume approximately 250 ml) at a constant temperature, with a flow-through of 100% nitrogen gas (purity 99.999%, manufacturer AGA) at two different flow-through rates: N1=120 ml/min, N2=40 ml/min. The temperature of the raw milk in the sample bottles was adjusted by means of the thermostat (14) of the water bath to bring the temperature of the milk to 6.0° C., 7.0° C. or 12.0° C. The temperature variation in the vessel was less than ±0.1° C. The effect of nitrogen gas on the growth of the microflora in a raw milk sample at 12.0° C. Two flow-through rates of the nitrogen gas were used in the study: (▴) 40 ml/min and ([…]) 120 ml/min. […] The following bacterial levels were determined in the samples: The effect of nitrogen gas on the growth of the microflora in a raw milk sample at 12.0° C. Two flow-through rates of the nitrogen gas were used in the study: (▴) 40 ml/min and ([…]) 120 ml/min. […] The following bacterial levels were determined in the samples: […]"}, "[2]": {"test_system": "anaerobically cultivated phospholipase-producing bacteria", "test": "Number of anaerobically cultivated phospholipase-producing bacteria in raw milk under nitrogen gas", "assay_type": "cell-based", "conditions": "12.0° C., FIG. 5K", "method": "(§1) With the device shown in FIG. 1, the effect of nitrogen gas on the natural microflora in raw milk (volume approximately 125 ml) was examined by replacing the air (control) in an open vessel (volume approximately 250 ml) at a constant temperature, with a flow-through of 100% nitrogen gas (purity 99.999%, manufacturer AGA) at two different flow-through rates: N1=120 ml/min, N2=40 ml/min. The temperature of the raw milk in the sample bottles was adjusted by means of the thermostat (14) of the water bath to bring the temperature of the milk to 6.0° C., 7.0° C. or 12.0° C. The temperature variation in the vessel was less than ±0.1° C. The effect of nitrogen gas on the growth of the microflora in a raw milk sample at 12.0° C. Two flow-through rates of the nitrogen gas were used in the study: (▴) 40 ml/min and ([…]) 120 ml/min. […] The following bacterial levels were determined in the samples: FIG. 5A: Total bacteria count (p.m.y./ml) FIG. 5B: Total number of psychrotrophs (p.m.y./ml) FIG. 5C: Total number of proteolytic bacteria (p.m.y./ml) FIG. 5D: Total number of lipolytic bacteria (p.m.y./ml) FIG. 5E: Total number of bacteria producing phospholipase (p.m.y./ml). […]"}, "[3]": {"test_system": "microaerobic/fermentative microbes (such as lactobacilli)", "test": "Growth of lactobacillus-type bacteria in raw milk under nitrogen gas", "assay_type": "cell-based", "conditions": "12.0° C., N1 environment (120 ml/min), Example 5, FIG. 5G", "method": "as §1"}, "[4]": {"test_system": "anaerobic microbes", "test": "Growth of anaerobically cultivated bacteria in raw milk under nitrogen gas", "assay_type": "cell-based", "conditions": "12.0° C., N1 environment (120 ml/min), Example 5, FIG. 5H", "method": "as §1"}, "[5]": {"test_system": "aerobic spores, such as B. cereus", "test": "Aerobic spore count in raw milk under nitrogen gas", "assay_type": "cell-based", "conditions": "12.0° C., N1 environment (120 ml/min), Example 5, FIG. 5F", "method": "(§2) With the device shown in FIG. 1, the effect of nitrogen gas on the natural microflora in raw milk (volume approximately 125 ml) was examined by replacing the air (control) in an open vessel (volume approximately 250 ml) at a constant temperature, with a flow-through of 100% nitrogen gas (purity 99.999%, manufacturer AGA) at two different flow-through rates: N1=120 ml/min, N2=40 ml/min.\n(§3) The temperature of the raw milk in the sample bottles was adjusted by means of the thermostat (14) of the water bath to bring the temperature of the milk to 6.0° C., 7.0° C. or 12.0° C. The temperature variation in the vessel was less than ±0.1° C.\n(§4) The effect of nitrogen gas on the growth of the microflora in a raw milk sample at 12.0° C. Two flow-through rates of the nitrogen gas were used in the study: (▴) 40 ml/min and ([…]) 120 ml/min. […] The following bacterial levels were determined in the samples:\n(§5) FIG. 5A: Total bacteria count (p.m.y./ml) FIG. 5B: Total number of psychrotrophs (p.m.y./ml) FIG. 5C: Total number of proteolytic bacteria (p.m.y./ml) FIG. 5D: Total number of lipolytic bacteria (p.m.y./ml) FIG. 5E: Total number of bacteria producing phospholipase (p.m.y./ml). […]"}, "[6]": {"test_system": "anaerobic spores, such as C. tyrobutyricum", "test": "Anaerobic spore count in raw milk under nitrogen gas", "assay_type": "cell-based", "conditions": "12.0° C., N1 environment (120 ml/min), Example 5, FIG. 5L", "method": "as §2, §3, §4, §5"}, "[7]": {"test_system": "psychrotrophic P. fluorescens strain", "conditions": "sterile milk, 4° C., Skura et al.; cited from earlier work"}, "[8]": {"test_system": "psychrotrophs in raw milk", "conditions": "7° C., closed system, Dechemi et al.; cited from earlier work"}}}
{"smiles": "N#N", "note": "[nitrogen gas]", "values": [{"measurement": "growth of the psychrotrophs", "setting": "[1]; Example 4 sample", "result": "no longer prevents the growth of the psychrotrophs, instead it delays it"}, {"measurement": "growth of the psychrotrophs", "setting": "[1]; Example 5 sample", "result": "substantially delay"}, {"measurement": "growth of the anaerobic bacteria which secrete phospholipase", "setting": "[2]; N1 environment (120 ml/min)", "result": "total prevention of growth"}, {"measurement": "growth of the anaerobic bacteria which secrete phospholipase", "setting": "[2]; N2 environment (40 ml/min)", "result": "total prevention of growth"}, {"measurement": "growth of microaerobic/fermentative microbes (such as lactobacilli)", "setting": "[3]", "result": "able to delay the growth"}, {"measurement": "growth of anaerobic microbes", "setting": "[4]", "result": "able to delay the growth"}, {"measurement": "formation (sporulation) of aerobic spores", "setting": "[5]", "result": "does not increase the formation (sporulation)"}, {"measurement": "formation (sporulation) of anaerobic spores", "setting": "[6]", "result": "does not increase the formation (sporulation)"}, {"measurement": "growth of P. fluorescens strain versus control culture in normal air", "setting": "[7]", "result": "grew slower"}, {"measurement": "proteolytic activity of the strain", "setting": "[7]", "result": "very low compared with that of the control culture"}, {"measurement": "effect of inhibiting the protease activity, among the gas alternatives tested", "setting": "[8]", "result": "neither the best nor the worst one"}, {"measurement": "preventing the growth of the microbes and inhibiting the lipase activity, among the protecting gases used", "setting": "[8]", "result": "least effective"}]}
